Read-outs that look alike come from different tables or passages of the source.
Tests used:
[1] = 25° C.
Procedure: Dynamic vapour sorption (DVS) measurements were conducted using a Q5000 SA from TA instruments.
Experiments were conducted in two sorption/desorption cycles between 0% RH and 95% RH. Prior to the first sorption cycle the sample was equilibrated at 20% RH and the initial weight recorded. Samples were analyzed in an aluminium pan. Humidity was brought down to 0% RH and the sample dried until the weight had stabilized within a given limit. The temperature was held constant at 25° C. Maximum step time was 720 min. Gas flow was 200 cm3/min.

[2] = conclusion from calculated Tt and seeding experiment
Procedure: (§1) In order to confirm this finding experimentally, a seeding experiment was carried out, where mixtures of the two forms were slurried in an organic solvent for 4 hours at various temperatures.

[3] = for Particle size D10 / Particle size D50 / Particle size D90: image analysis; for Aspect ratio AR10 / Aspect ratio AR50 / Aspect ratio AR90: longest divided by shortest particle dimension
Procedure: Microscopic analysis was carried out using a Zeiss Axiolab microscope (Carl Zeiss, Göttingen, Germany). Photomicrographs were captured using a DeltaPix digital camera and Deltapix software version 1.6 (Maaloev, Denmark). […] The particle size was determinated using Motic Image Plus 2.0 software (Motic Group Inc, China), calibrated to pictures of reference scales taken with the used objectives.

[4] = triplicate; for bulk density: 50.0 g sample; for tapped density: 2500 taps at 100 taps/min
Procedure: Density determinations were performed as described in Ph. Eur. 2.9.34. The method was modified as the sample amount placed in the 250 ml volumetric glass cylinder was 50.0 g and 2500 taps were run at 100 taps/min. The measurements were done in triplicate.

[5] = mixtures of the two forms slurried in organic solvent for 4 hours, XRPD
Procedure: as §1

hygroscopicity (DVS) ([1]; below 80% RH) | hygroscopicity (DVS) ([1]; in excess of 80% RH) | temperature at which the form is the thermodynamically most stable form [2] | Particle size D10 [3] [μm] | Particle size D50 [3] [μm] | Particle size D90 [3] [μm] | Aspect ratio AR10 [3] | Aspect ratio AR50 [3] | Aspect ratio AR90 [3] | bulk density [4] [g/mL] | tapped density [4] [g/mL] | temperature at which the polymorphic outcome of slurrying was this form [5] | SMILES
non-hygroscopic | deliquescent | above 127 °C | 9 | 21 | 42 | 1.6 | 3.1 | 5.8 | 0.212 | 0.264 | below 125 °C | CCCN1CCC(c2cccc(S(C)(=O)=O)c2)CC1 [Form I, 4-(3-methanesulfonyl-phenyl)-1-propyl-piperidine]
non-hygroscopic | deliquescent | above 127 °C | 49 | 170 | 363 | 1.1 | 1.6 | 2.9 | 0.382 | 0.486 | above 130 °C | CCCN1CCC(c2cccc(S(C)(=O)=O)c2)CC1.Cl [Form II, 4-(3-methanesulfonyl-phenyl)-1-propyl-piperidine hydrochloride salt]
